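Values below derive from 48-hour exposures of cells grown in 96-well plates, with endpoints linearly interpolated between the two concentrations bracketing the appropriate inhibition level. Abbreviation: GI50, concentration required for 50% inhibition of growth. TGI denotes the concentration required for complete inhibition of growth.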
What was measured:
Assay in all cases: NCI tumour cell line growth inhibition, 48 h
NCI-H460 lung = system: NCI-H460 lung
CAKI-1 renal = system: CAKI-1 renal
HOP-92 NSCLC = system: HOP-92 NSCLC
SNB-75 CNS = system: SNB-75 CNS
NCI-H23 lung = system: NCI-H23 lung
SW-620 colon = system: SW-620 colon
RPMI-8226 leukemia = system: RPMI-8226 leukemia
IGROV1 ovarian = system: IGROV1 ovarian
COLO 205 colon = system: COLO 205 colon
MALME-3M melanoma = system: MALME-3M melanoma

Compound | GI50 (NCI-H460 lung) [µM] | TGI (NCI-H460 lung) [µM] | GI50 (CAKI-1 renal) [µM] | TGI (CAKI-1 renal) [µM] | GI50 (HOP-92 NSCLC) [µM] | TGI (HOP-92 NSCLC) [µM] | GI50 (SNB-75 CNS) [µM] | TGI (SNB-75 CNS) [µM] | GI50 (NCI-H23 lung) [µM] | TGI (NCI-H23 lung) [µM] | GI50 (SW-620 colon) [µM] | TGI (SW-620 colon) [µM] | GI50 (RPMI-8226 leukemia) [µM] | TGI (RPMI-8226 leukemia) [µM] | GI50 (IGROV1 ovarian) [µM] | TGI (IGROV1 ovarian) [µM] | GI50 (COLO 205 colon) [µM] | TGI (COLO 205 colon) [µM] | GI50 (MALME-3M melanoma) [µM] | TGI (MALME-3M melanoma) [µM]
COc1ccc(-c2nc3ccc(-c4nc5ccc(N6CCN(c7ccccc7)CC6)cc5[nH]4)cc3[nH]2)cc1OC | 1.73 | 3.66 | 2.18 | 8.02 | 1.28 | 4 | 1.06 | 3.8 | 1.77 | 3.66 | 1.15 | 2.71 | 0.19 | 2.3 | 1.65 | 3.44 | 0.77 | 2.81 | 1.05 | 2.52
CCOC(=O)Nc1ccc(C)c(NC(=O)OCC)c1 | – | > 100 | – | > 100 | – | > 100 | – | > 100 | – | > 100 | – | > 100 | – | > 100 | – | > 100 | – | > 100 | – | > 100
COc1cccc2c1C(=O)c1c(O)c3c(c(O)c1C2=O)C[C@](O)(C(=O)CO)C[C@H]3O[C@@H]1C[C@@H](NC(=O)CCCCCN(C)C2(c3ccc(F)cc3)CC3CCC2C3)[C@H](O)[C@@H](C)O1 (stereo not given in full) | 0.555 | 1.37 | 6.82 | 13.3 | 5.36 | 12.5 | 3.28 | 11.2 | 3.49 | 10.7 | 0.76 | 1.85 | 0.899 | 2.25 | 6.59 | 14.8 | 0.728 | 1.65 | 7.85 | 16.9
CC(=O)Oc1c2c(c(O)c3ccccc13)C(n1cnc3c(ncn3C3OC(CO)C4OC(C)(C)OC43)c1=N)CCC2 (stereo not given) | – | 62.4 | – | 50.1 | – | 39.1 | – | 32.3 | – | 36.7 | – | 29.6 | – | 18.7 | – | 40.9 | – | 37.6 | – | 23.4
COc1ccc(-c2nn(-c3ccc(NC(=O)c4ccc(Cl)c(Cl)c4)cc3)cc2-c2ccncc2)cc1Cl | 2.02 | > 50 | 1.33 | 5.26 | 7.65 | > 50 | 1.26 | > 50 | > 12.7 | > 50 | 2.67 | > 50 | 0.831 | > 11.6 | > 50 | > 50 | 1.45 | 3.8 | 5.88 | > 50
CN1CCOC(c2ccccc2)O1 (stereo not given) | – | > 100 | – | > 100 | – | > 100 | – | > 100 | – | > 100 | – | > 100 | – | > 100 | – | > 100 | – | > 100 | – | > 100
Cn1cc(C2=C(c3cn(CCCCO)c4ccccc34)C(=O)NC2=O)c2ccccc21 | 8.41 | > 25 | 11.8 | > 25 | 17.1 | > 25 | 2.31 | > 25 | 10.1 | > 25 | 9.26 | > 25 | 9.23 | > 25 | 12.2 | > 22.9 | 7.28 | > 19.5 | > 21.6 | > 25
CCCN1C(=O)N(CCC)C2C1NC(=S)N2/N=C/C=C/c1ccccc1OC (stereo not given) | 0.418 | 16.5 | 0.508 | 97.5 | 0.624 | > 100 | 0.233 | 2.3 | 2.66 | > 100 | 0.416 | > 100 | 0.69 | 16.7 | 0.831 | > 100 | 0.52 | 9.09 | 0.694 | 82.1
CCC[CH2][Sn]([Cl])([CH2]CCC)[CH2]CCC | 0.13 | 0.298 | 0.167 | 1.23 | 0.0452 | 0.188 | 0.111 | 0.354 | 0.0552 | 0.211 | 0.125 | 0.273 | 0.0171 | 0.168 | 0.169 | 0.625 | 0.134 | 0.278 | 0.123 | 0.265
CN1C(=O)N(C)C2C1NN=c1s/c(=C\c3ccc(Cl)cc3Cl)c(=O)n12 (stereo not given) | 0.199 | > 94.3 | 0.0608 | > 62.3 | 0.406 | 79.4 | 0.0274 | 2.32 | 0.37 | 52.9 | 0.109 | > 100 | 0.364 | 16.3 | 0.326 | > 50.1 | 0.0951 | 2.58 | 1.21 | > 81.6
S=c1sc2c(Cl)nc(Cl)nc2n1-c1ccccc1 | – | > 100 | – | > 100 | – | > 100 | – | > 100 | – | 32.9 | – | 68.1 | – | > 100 | – | 33.6 | – | > 100 | – | > 100
COc1ccc2[nH]cc(C3(c4c[nH]c5ccc(OC)cc45)C(=O)Nc4ccc(F)cc43)c2c1 | 2.3 | 5.17 | 2.29 | 10.6 | 2.39 | 9.24 | 1.38 | 8.23 | 2.43 | 8.06 | 3.04 | 11.5 | 4.41 | > 100 | 2.64 | 12.6 | 1.69 | 3.05 | 2.44 | 22.4
CCn1c2ccccc2c2cc(NC(=O)Nc3ccc([N+](=O)[O-])cc3C)ccc21 | 3.09 | 14.8 | 4.35 | 17.5 | 1.27 | 4.64 | 3.05 | 17.6 | 3.9 | 30.6 | 3.38 | 48.1 | 1.4 | 4.01 | 3.38 | 14.1 | 2.82 | 10.3 | 2.28 | 13
CCCNC(=S)NNC(=O)CSc1nc(-c2ccccc2)c(-c2ccccc2)[nH]1 | – | > 100 | – | 94.6 | – | 97.8 | – | > 100 | – | > 100 | – | > 100 | – | > 100 | – | > 100 | – | > 100 | – | 95.4
O=C(CCc1n[nH]c(=S)o1)Nc1ccccc1C(F)(F)F | – | > 100 | – | > 100 | – | > 100 | – | > 100 | – | > 100 | – | 49 | – | 85.1 | – | > 100 | – | > 100 | – | > 100
Cc1ccccc1N1C(=O)C2C=CC(n3[nH]c(=O)n(Cc4ccccc4)c3=O)CC2C1=O (stereo not given) | – | > 100 | – | > 100 | – | > 100 | – | > 100 | – | > 100 | – | > 100 | – | > 100 | – | > 100 | – | > 100 | – | > 100

— PubChem BioAssay (NCI)
